For one compound, activity results are on record in patent publication US9879036B2, “Mitochondrial aldehyde dehydrogenase-2 binding compounds and methods of use thereof” (Aviv Therapeutics, Inc., priority 2014, dated 2018).

One assay concerns the target T1, ALDH2*1/*1 (Homo sapiens, UniProt P05091).
T1 construct: His-tag (N); made in house; host or cells: E. coli BL21 (pTrcHis vector)
T1 sequence (P05091 18-517): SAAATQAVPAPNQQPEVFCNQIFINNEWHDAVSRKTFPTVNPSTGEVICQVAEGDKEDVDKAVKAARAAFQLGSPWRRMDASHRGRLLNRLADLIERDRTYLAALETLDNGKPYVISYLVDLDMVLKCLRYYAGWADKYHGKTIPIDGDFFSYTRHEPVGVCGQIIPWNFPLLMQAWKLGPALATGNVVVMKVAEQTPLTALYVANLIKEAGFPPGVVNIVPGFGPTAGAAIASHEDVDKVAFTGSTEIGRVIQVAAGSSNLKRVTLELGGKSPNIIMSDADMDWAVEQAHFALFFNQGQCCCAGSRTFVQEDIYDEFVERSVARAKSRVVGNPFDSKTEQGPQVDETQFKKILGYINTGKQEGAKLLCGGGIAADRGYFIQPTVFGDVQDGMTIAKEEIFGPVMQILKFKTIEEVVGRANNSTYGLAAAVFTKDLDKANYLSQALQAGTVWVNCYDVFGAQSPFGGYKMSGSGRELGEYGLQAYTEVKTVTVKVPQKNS
Kind of assay: ALDH2 enzymatic activity, NADH accumulation at 340 nm, acetaldehyde substrate, wild type. The following applies: relative to baseline enzymatic activity (100%). It is filed as biochemical. An outline of the steps:
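N-terminally His-tagged recombinant human ALDH2 (wild type, or E487K co-expressed with wild type for heterotetramers) was made in E. coli and Ni-purified. Activity was followed as NADH formation at 340 nm with acetaldehyde and NAD+, with compound at 20 to 0.16 μM, expressed as % of baseline activity.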

The target of another assay is T2, ALDH2 (Homo sapiens, UniProt P05091).
T2 construct: His-tag (N); made in house; host or cells: E. coli BL21
T2 sequence (P05091 18-517): T1 sequence (P05091 18-517)
Briefly: ALDH2 activity with 20 μM of the compound (Table 3). The format is biochemical. Conditions: 20 μM compound. An outline of the steps: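 Compound was tested at 20 μM. ALDH2 oxidation of acetaldehyde with NAD+ cofactor was followed spectrophotometrically as NADH accumulation at 340 nm. Activity is expressed relative to the enzyme's baseline activity, taken as 100%.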

With `COc1ccc(CNC(=O)c2cc(-c3ncccc3CO)ccc2OCC2CC2)cc1F` [AC6], the activity at 2.5 µM at ALDH2*1/*1 (2.5 μM compound) came out at 208%. Besides, the activity at 5 µM on ALDH2*1/*1 (5 μM compound) was determined as 238%. Further, the activity at 10 µM on ALDH2*1/*1 (10 μM compound) turned out to be 293%. Moreover, the activity at 20 µM at ALDH2*1/*1 (20 μM compound) was 299%; at ALDH2, > 250%.
